Assay results taken from the NIST ThermoML archive (doi:10.1016/j.jct.2006.10.008).

Legend:
[1] = xn = mol fraction of the nth substance listed; details: 298.15 K, 101 kPa, Liquid
[2] = excess molar enthalpy (molar enthalpy of mixing); xn = mol fraction of the nth substance listed; details: 298.15 K, 101 kPa, Liquid, Calvet calorimetry

CCCOC=O [propyl methanoate] + ClCCCCCl
Details	excess molar enthalpy [kcal/mol]	mass density [kg/m3]
[1], x1 = 0.0695	–	1119.11
[1], x1 = 0.1347	–	1106.03
[1], x1 = 0.1987	–	1092.92
[1], x1 = 0.2624	–	1079.78
[1], x1 = 0.3279	–	1066.03
[1], x1 = 0.3884	–	1053.07
[1], x1 = 0.4509	–	1039.59
[1], x1 = 0.5061	–	1027.51
[1], x1 = 0.5671	–	1013.93
[1], x1 = 0.6204	–	1001.93
[1], x1 = 0.6808	–	988.13
[1], x1 = 0.7363	–	975.18
[1], x1 = 0.7901	–	962.5
[1], x1 = 0.8426	–	950.01
[1], x1 = 0.8965	–	936.97
[1], x1 = 0.9466	–	924.57
[2], x1 = 0.0711	0.00681	–
[2], x1 = 0.1446	0.00982	–
[2], x1 = 0.2182	0.0105	–
[2], x1 = 0.2908	0.00652	–
[2], x1 = 0.3554	0.00213	–
[2], x1 = 0.4191	-0.00306	–
[2], x1 = 0.4755	-0.007	–
[2], x1 = 0.5267	-0.0106	–
[2], x1 = 0.5668	-0.0133	–
[2], x1 = 0.6196	-0.0168	–
[2], x1 = 0.681	-0.0186	–
[2], x1 = 0.7427	-0.0172	–
[2], x1 = 0.8085	-0.0143	–
[2], x1 = 0.875	-0.00939	–
[2], x1 = 0.939	-0.00533	–

ClCCCCCCCl [1,6-dichlorohexane] + CCOC=O
Details	excess molar enthalpy [kcal/mol]	mass density [kg/m3]
[1], x2 = 0.0997	–	1055.27
[1], x2 = 0.196	–	1046.53
[1], x2 = 0.28	–	1038.19
[1], x2 = 0.3577	–	1029.9
[1], x2 = 0.4304	–	1021.49
[1], x2 = 0.4965	–	1013.36
[1], x2 = 0.558	–	1005.21
[1], x2 = 0.6159	–	997.06
[1], x2 = 0.67	–	988.91
[1], x2 = 0.7203	–	980.91
[1], x2 = 0.7675	–	973
[1], x2 = 0.8114	–	965.17
[1], x2 = 0.8538	–	957.24
[1], x2 = 0.893	–	949.58
[1], x2 = 0.9301	–	941.93
[1], x2 = 0.9649	–	934.51
[2], x2 = 0.102	0.0409	–
[2], x2 = 0.205	0.0712	–
[2], x2 = 0.2968	0.09352	–
[2], x2 = 0.3852	0.1054	–
[2], x2 = 0.4641	0.1101	–
[2], x2 = 0.5316	0.1113	–
[2], x2 = 0.5845	0.1095	–
[2], x2 = 0.6442	0.1042	–
[2], x2 = 0.6907	0.09704	–
[2], x2 = 0.7399	0.08726	–
[2], x2 = 0.7869	0.0732	–
[2], x2 = 0.8348	0.0598	–
[2], x2 = 0.8829	0.0418	–
[2], x2 = 0.9248	0.0285	–
[2], x2 = 0.9656	0.0148	–

CCCCCOC=O [pentyl methanoate] + ClCCCCCCCl
Details	excess molar enthalpy [kcal/mol]	mass density [kg/m3]
[1], x1 = 0.0731	–	1051.9
[1], x1 = 0.1352	–	1041.69
[1], x1 = 0.1967	–	1031.48
[1], x1 = 0.3212	–	1010.41
[1], x1 = 0.3822	–	999.88
[1], x1 = 0.4398	–	989.79
[1], x1 = 0.558	–	968.7
[1], x1 = 0.6153	–	958.24
[1], x1 = 0.6723	–	947.69
[1], x1 = 0.7282	–	937.22
[1], x1 = 0.7836	–	926.72
[1], x1 = 0.839	–	916.1
[1], x1 = 0.893	–	905.58
[1], x1 = 0.9462	–	895.13
[2], x1 = 0.0697	-0.00265	–
[2], x1 = 0.162	-0.00595	–
[2], x1 = 0.2559	-0.0114	–
[2], x1 = 0.3406	-0.0172	–
[2], x1 = 0.4168	-0.0225	–
[2], x1 = 0.4813	-0.0253	–
[2], x1 = 0.4927	-0.0259	–
[2], x1 = 0.5399	-0.0275	–
[2], x1 = 0.5935	-0.0264	–
[2], x1 = 0.6653	-0.0239	–
[2], x1 = 0.731	-0.0207	–
[2], x1 = 0.8005	-0.0167	–
[2], x1 = 0.8731	-0.0112	–
[2], x1 = 0.9459	-0.00559	–

CCOC=O [ethyl methanoate] + ClCCCl
Details	excess molar enthalpy [kcal/mol]	mass density [kg/m3]
[1], x1 = 0.0571	–	1226.06
[1], x1 = 0.1212	–	1204.8
[1], x1 = 0.1793	–	1185.79
[1], x1 = 0.2317	–	1168.78
[1], x1 = 0.2946	–	1148.35
[1], x1 = 0.355	–	1128.9
[1], x1 = 0.4144	–	1109.76
[1], x1 = 0.465	–	1093.66
[1], x1 = 0.5294	–	1073.24
[1], x1 = 0.5889	–	1054.49
[1], x1 = 0.6485	–	1035.88
[1], x1 = 0.7065	–	1017.61
[1], x1 = 0.7648	–	999.52
[1], x1 = 0.8239	–	981.06
[1], x1 = 0.8823	–	962.96
[1], x1 = 0.9345	–	946.9
[2], x1 = 0.0533	-0.0075	–
[2], x1 = 0.117	-0.0173	–
[2], x1 = 0.1872	-0.0268	–
[2], x1 = 0.2551	-0.0353	–
[2], x1 = 0.3201	-0.0432	–
[2], x1 = 0.3798	-0.05	–
[2], x1 = 0.4359	-0.0549	–
[2], x1 = 0.4835	-0.0584	–
[2], x1 = 0.5094	-0.0598	–
[2], x1 = 0.5591	-0.0598	–
[2], x1 = 0.6134	-0.0574	–
[2], x1 = 0.6735	-0.0546	–
[2], x1 = 0.7374	-0.0485	–
[2], x1 = 0.8	-0.0397	–
[2], x1 = 0.8714	-0.0283	–
[2], x1 = 0.9368	-0.0146	–
